# Test results as given in patent US12318403B2, “2′3′-cyclic dinucleotides and prodrugs thereof” (INSTITUTE OF ORGANIC CHEMISTRY AND BIOCHEMISTRY ASCR, V.V.I., priority 2019, dated 2025).
# Read-outs that look alike come from different tables or passages of the source.
# Key:
# [1] = biological target: T1, human wild type STING (WT STING) (Homo sapiens, UniProt Q86WV6, H232R); test: Digitonin assay using 293T wtSTING-FL reporter cells; format: cell-based; conditions: 293T wtSTING-FL cells; compounds in Digitonin buffer 30 minutes, then 5 hours in medium; ISRE firefly luciferase
# [2] = biological target: T2, AQ human STING (G230A-R293Q) (Homo sapiens, UniProt Q86WV6, G230A/H232R/R293Q); test: Differential Scanning Fluorimetry with AQ STING; format: binding; conditions: thermal shift vs STING apoprotein; 150 μM CDN; truncated AQ STING (residues 140-343)
# T2 construct: truncated human WT STING or AQ STING (amino acid residues 140-343); 8xHis (N, cleaved yes); SUMO (N, cleaved yes); made in house; host or cells: E. coli Rosetta-gami B (DE3)
# [3] = biological target: T1, human wild type STING (WT STING); test: 293T WT STING standard reporter assay; format: cell-based; conditions: 293T wtSTING-FL cells; standard reporter assay without digitonin; 7 hours; ISRE firefly luciferase; read-out: 293T WT STING EC50
# human WT STING = biological target: T3, human WT STING (Homo sapiens, UniProt Q86WV6, H232R); test: Differential Scanning Fluorimetry with WT STING; format: binding; conditions: thermal shift vs STING apoprotein; 150 μM CDN; truncated WT STING (residues 140-343)
# T3 construct: truncated human WT STING or AQ STING (amino acid residues 140-343); 8xHis (N, cleaved yes); SUMO (N, cleaved yes); made in house; host or cells: E. coli Rosetta-gami B (DE3)
# [4] = tested on: peripheral blood mononuclear cell (PBMC); test: Peripheral blood mononuclear cell assay; conditions: average of one to four donors
# [5] = read-out: PBMC EC50 IFN-α, compounds 1h, washed, 15 hour incubation, interferon-alpha level in medium
# [6] = read-out: PBMC EC50 IFN-γ, compounds 1h, washed, 15 hour incubation, interferon-gamma level in medium
# [7] = read-out: PBMC EC50 TNF-α, compounds 1h, washed, 15 hour incubation, tumor necrosis factor-alpha level in medium
# [8] = PBMC, read-out: PBMC EC50 IFN-α, compounds 1h, washed, 15 hour incubation, interferon-alpha level in medium
# [9] = PBMC, read-out: PBMC EC50 IFN-γ, compounds 1h, washed, 15 hour incubation, interferon-gamma level in medium
# [10] = PBMC, read-out: PBMC EC50 TNF-α, compounds 1h, washed, 15 hour incubation, tumor necrosis factor-alpha level in medium
# T1 sequence (Q86WV6 whole entry H232R, the tested form may be a part): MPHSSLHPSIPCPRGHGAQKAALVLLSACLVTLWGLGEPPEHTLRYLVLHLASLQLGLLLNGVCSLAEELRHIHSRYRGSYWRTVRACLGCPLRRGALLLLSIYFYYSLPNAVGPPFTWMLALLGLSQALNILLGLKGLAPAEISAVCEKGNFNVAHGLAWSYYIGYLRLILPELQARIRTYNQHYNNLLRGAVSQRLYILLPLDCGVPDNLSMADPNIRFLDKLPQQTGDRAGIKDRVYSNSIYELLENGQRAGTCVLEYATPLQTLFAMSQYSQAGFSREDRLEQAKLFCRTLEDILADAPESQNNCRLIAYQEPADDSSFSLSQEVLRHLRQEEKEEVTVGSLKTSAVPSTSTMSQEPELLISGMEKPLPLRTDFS
# T2 sequence (Q86WV6 140-343 G230A/H232R/R293Q): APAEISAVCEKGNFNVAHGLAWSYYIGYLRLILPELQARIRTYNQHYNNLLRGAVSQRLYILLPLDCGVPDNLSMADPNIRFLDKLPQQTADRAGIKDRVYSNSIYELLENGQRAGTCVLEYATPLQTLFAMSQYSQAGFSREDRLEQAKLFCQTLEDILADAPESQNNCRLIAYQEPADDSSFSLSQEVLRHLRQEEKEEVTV
# T3 sequence (Q86WV6 140-343 H232R): as the sequence (Q86WV6 140-343 G230A/H232R/R293Q) above, with A91G, Q154R counted along it
EC50 [1] [nM],DSF ΔTm AQ STING [2] [°C],EC50 [3] [nM],DSF ΔTm WT STING (human WT STING) [°C],SMILES,"EC50 [4, 5] [nM]","EC50 [4, 6] [nM]","EC50 [4, 7] [nM]","EC50 [4, 8] [nM]","EC50 [4, 9] [nM]","EC50 [4, 10] [nM]"
600,–,–,–,"Nc1ncnc2c1ncn2[C@@H]1O[C@@H]2COP(=O)(S)O[C@@H]3[C@H](F)[C@@H](COP(=O)(S)CO[C@H]2[C@H]1F)O[C@H]3n1cnc2c(N)ncnc21 (single isomer, unassigned) [Compound 30c]",–,–,–,–,–,–
10,29.2,1900,22.4,"Nc1nc2c(ncn2[C@@H]2O[C@@H]3COP(=O)(O)CO[C@H]4[C@@H](F)[C@H](n5cnc6c(N)ncnc65)O[C@@H]4COP(=O)(S)O[C@@H]2[C@@H]3F)c(=O)[nH]1 (single isomer, unassigned) [Compound 11b]",227000,56000,171000,–,–,–
7,25.4,140,18.6,"Nc1nc2c(ncn2[C@@H]2O[C@@H]3COP(=O)(S)CO[C@H]4[C@@H](F)[C@H](n5cnc6c(N)ncnc65)O[C@@H]4COP(=O)(S)O[C@@H]2[C@@H]3F)c(=O)[nH]1 (single isomer, unassigned) [Compound 17c]",107000,42000,84000,–,–,–
400,–,–,–,"Nc1ncnc2c1ncn2[C@@H]1O[C@@H]2COP(=O)(S)O[C@@H]3[C@H](F)[C@@H](COP(=O)(S)CO[C@H]2[C@H]1F)O[C@H]3n1cnc2c(N)ncnc21 (single isomer, unassigned) [Compound 30b]",–,–,–,–,–,–
12,27.6,400,19.2,"Nc1nc2c(ncn2[C@@H]2O[C@@H]3COP(=O)(S)CO[C@H]4[C@@H](F)[C@H](n5cnc6c(N)ncnc65)O[C@@H]4COP(=O)(S)O[C@@H]2[C@@H]3F)c(=O)[nH]1 (single isomer, unassigned) [Compound 17d]",–,–,–,69000,23000,68000
–,13.3,6200,9.3,"Nc1ncnc2c1ncn2[C@@H]1O[C@@H]2COP(=O)(O)O[C@@H]3[C@H](F)[C@@H](COP(=O)(O)CO[C@H]2[C@H]1F)O[C@H]3n1cnc2c(N)ncnc21 [Compound 28, (1S,6R,8R,9R,10R,16R,18R,19R)-8,18-bis(6-amino-9H-purin-9-yl)-9,19-difluoro-3,13-dihydroxy-2,4,7,11,14,17-hexaoxa-3λ^5,13λ^5-diphosphatricyclo[14.2.1.0^6,^10]nonadecane-3,13-dione]",–,–,–,–,–,–
30,23.1,2500,17.3,"Nc1nc2c(ncn2[C@@H]2O[C@@H]3COP(=O)(O)CO[C@H]4[C@@H](F)[C@H](n5cnc6c(N)ncnc65)O[C@@H]4COP(=O)(S)O[C@@H]2[C@@H]3F)c(=O)[nH]1 (single isomer, unassigned) [Compound 11a]",–,152000,–,286000,–,180000
11200,–,–,–,"Nc1ncnc2c1ncn2[C@@H]1O[C@@H]2COP(=O)(S)O[C@@H]3[C@H](F)[C@@H](COP(=O)(S)CO[C@H]2[C@H]1F)O[C@H]3n1cnc2c(N)ncnc21 (single isomer, unassigned) [Compound 30a]",–,–,–,–,–,–
20,19.7,2300,13.8,"Nc1nc2c(ncn2[C@@H]2O[C@@H]3COP(=O)(S)CO[C@H]4[C@@H](F)[C@H](n5cnc6c(N)ncnc65)O[C@@H]4COP(=O)(O)O[C@@H]2[C@@H]3F)c(=O)[nH]1 (single isomer, unassigned) [Compound 15a]",–,–,–,–,–,–
540,14.3,10200,8.7,"Nc1nc2c(ncn2[C@@H]2O[C@@H]3COP(=O)(S)CO[C@H]4[C@@H](F)[C@H](n5cnc6c(N)ncnc65)O[C@@H]4COP(=O)(S)O[C@@H]2[C@@H]3F)c(=O)[nH]1 (single isomer, unassigned) [Compound 17a]",–,–,–,–,–,–
–,–,1100,–,"CC(C)OC(=O)OCOP1(=O)CO[C@H]2[C@@H](F)[C@H](n3cnc4c(N)ncnc43)O[C@@H]2COP(=O)(OCOC(=O)OC(C)C)O[C@@H]2[C@H](F)[C@@H](CO1)O[C@H]2n1cnc2c(N)ncnc21 (single isomer, unassigned) [Compound 80c]",> 5000,> 5000,> 5000,–,–,–
10,26.0,1100,20.9,"Nc1ncnc2c1ncn2[C@@H]1O[C@@H]2COP(=O)(S)O[C@@H]3[C@H](F)[C@@H](COP(=O)(O)CO[C@H]2[C@H]1F)O[C@H]3n1cnc2c(=O)[nH]cnc21 (single isomer, unassigned) [Compound 13b]",–,–,–,150000,70000,65000
–,–,50,–,"CC(C)(C)C(=O)OCOP1(=O)CO[C@H]2[C@@H](F)[C@H](n3cnc4c(N)ncnc43)O[C@@H]2COP(=O)(OCOC(=O)C(C)(C)C)O[C@@H]2[C@H](F)[C@@H](CO1)O[C@H]2n1cnc2c(N)ncnc21 (single isomer, unassigned) [Compound 81a]",–,–,–,1400,1700,1600
–,–,20,–,"CCCCCCCCCCCC(=O)OCOP1(=O)CO[C@H]2[C@@H](F)[C@H](n3cnc4c(N)ncnc43)O[C@@H]2COP(=O)(OCOC(=O)CCCCCCCCCCC)O[C@@H]2[C@H](F)[C@@H](CO1)O[C@H]2n1cnc2c(=O)[nH]cnc21 (single isomer, unassigned) [Compound 79b]",200,10,200,–,–,–
–,–,50,–,"CC(C)(C)C(=O)OCOP1(=O)CO[C@H]2[C@@H](F)[C@H](n3cnc4c(N)ncnc43)O[C@@H]2COP(=O)(OCOC(=O)C(C)(C)C)O[C@@H]2[C@H](F)[C@@H](CO1)O[C@H]2n1cnc2c(N)ncnc21 (single isomer, unassigned) [Compound 81b]",1000,1400,1300,–,–,–
–,27.0,4700,19.4,"Nc1nc2c(ncn2[C@@H]2O[C@@H]3COP(=O)(S)CO[C@H]4[C@@H](F)[C@H](n5cnc6c(N)ncnc65)O[C@@H]4COP(=O)(O)O[C@@H]2[C@@H]3F)c(=O)[nH]1 (single isomer, unassigned) [Compound 15b]",–,–,–,–,–,–
9,21.8,1300,18.3,"Nc1ncnc2c1ncn2[C@@H]1O[C@@H]2COP(=O)(S)O[C@@H]3[C@H](F)[C@@H](COP(=O)(O)CO[C@H]2[C@H]1F)O[C@H]3n1cnc2c(=O)[nH]cnc21 (single isomer, unassigned) [Compound 13a]",–,–,–,–,–,–
–,–,300,–,"CC(C)(C)C(=O)OCOP1(=O)CO[C@H]2[C@@H](F)[C@H](n3cnc4c(N)ncnc43)O[C@@H]2COP(=O)(OCOC(=O)C(C)(C)C)O[C@@H]2[C@H](F)[C@@H](CO1)O[C@H]2n1cnc2c(=O)[nH]cnc21 (single isomer, unassigned) [Compound 77b]",4000,3000,3600,–,–,–

SMILES,EC50 [1] [nM],DSF ΔTm AQ STING [2] [°C],EC50 [3] [nM],DSF ΔTm WT STING (human WT STING) [°C],"EC50 [4, 5] [nM]","EC50 [4, 6] [nM]","EC50 [4, 7] [nM]","EC50 [4, 8] [nM]","EC50 [4, 9] [nM]","EC50 [4, 10] [nM]"
"Nc1ncnc2c1ncn2[C@@H]1O[C@@H]2COP(=O)(O)O[C@H]3[C@@H](O)[C@H](n4cnc5c(N)ncnc54)O[C@@H]3COP(=O)(O)O[C@H]2[C@H]1O [3′3′-c-di-AMP, reference compound]",300,9.0,202000,2.5,–,–,–,–,–,–
"Nc1nc2c(ncn2[C@@H]2O[C@@H]3COP(=O)(O)O[C@@H]4[C@H](O)[C@@H](COP(=O)(O)O[C@@H]2[C@@H]3O)O[C@H]4n2cnc3c(N)ncnc32)c(=O)[nH]1 [2′2′-cGAMP, reference compound]",30,19.4,10200,–,–,–,–,–,–,–
